# Measured values as given in patent US11413261B2, “Pharmaceutical composition for treating cancer comprising lactate metal salt” (METIMEDI PHARMACEUTICALS CO., LTD, priority 2014, dated 2022).
# Experiments:
# [1] = test system: human colorectal cancer cell lines (HCT-116 and HT-29); assay: Pyruvate level in cancer cells (pyruvate assay kit); assay type: cell-based; settings: 2.5 mM, 24 hours
# Protocol: Each of human colorectal cancer cell lines (HCT-116 and HT-29) with the cell number of 5×10^5 cells was treated with 2.5 mM calcium lactate for 24 hours and the cells were disrupted by ultrasonication and filtered using a 10 kDa filter so as to obtain filtrate. The obtained filtrate was applied to a pyruvate assay kit (Abcam, Cambridge, Mass.) to measure the concentration of pyruvate included in the filtrate (FIG. 12).
# β-catenin = β-catenin mRNA (RT-PCR) and protein (Western blot) expression in colorectal cancer cell lines; assay type: cell-based, human; settings: HCT-116, HT-29, DLD-1
# Protocol: Human colorectal cancer cell lines (HCT-116, HT-29, and DLD-1) were cultured by the same method as that of Example 2-1 except that they were treated with 0 mM, 1.5 mM, or 2.5 mM calcium lactate, and the cultured cancer cells were obtained. Then, expression levels of […] depending on the concentration of calcium lactate were compared at the expression levels of mRNA and protein included therein.
# Firstly, in order to compare mRNA expression levels, the total RNA was extracted from each of the cancer cells using an RNeasy mini kit and cDNA was synthesized using a reverse transcriptase. The gene of β-catenin was obtained through reverse transcriptase PCR using the synthesized cDNA as a template and the primers described below.
# Then, in order to compare protein expression levels, each of the cancer cells was disrupted and electrophoresis was performed thereto. Then, a Western blot using anti-β-catenin antibody as a primary antibody and an anti-rabbit IgG conjugate as a secondary antibody was conducted (lower part of FIG. 5) and the blots were analyzed with the Image-J program. In this case, actin was used as internal control groups.
# [2] = test system: human colorectal cancer cell line (HT-29); assay: Colony-forming ability, anticancer drug in combination with calcium lactate (6-well plates); assay type: cell-based; settings: 2.5 mM calcium lactate alone, vs control
# Protocol: (§1) Human colorectal cancer cell line (HT-29) with the cell number of 1×10^3 cells were seeded into an RPMI1640 medium in each of 6-well plates. […]. Then, the colony-forming abilities of the cells were compared. In this case, a human colorectal cancer cell line (HT-29) untreated with any drug was used as a control group (FIGS. 46a and 46b).
# as §1, with “48a” for “46a”, “48b).” for “46b).”
# as §1, with “(FIG. 55).” for “(FIGS. 46a and 46b).”
# [3] = test system: human lung cancer cell line (A549); assay: as above; assay type: cell-based; settings: 2.5 mM calcium lactate alone, vs control
# Protocol: Human breast cancer cell line (MCF-7) and a human lung cancer cell line (A549) with the cell number of 1×10^3 cells were seeded into an RPMI1640 medium in each of 6-well plates. […]. Then, the colony-forming abilities of the cells were compared. In this case, a human breast cancer cell line (MCF-7) and a human lung cancer cell line (A549) untreated with any drug were used as control groups (FIGS. 42a, 42b, 43a and 43b).
# as §1, with “lung” for “colorectal”, “(A549)” for “(HT-29)”, “44a” for “46a”, “44b).” for “46b).”
# as §1, with “lung” for “colorectal”, “(A549)” for “(HT-29)”, “47a” for “46a”, “47b).” for “46b).”
# as §1, with “lung” for “colorectal”, “(A549)” for “(HT-29)”, “49a” for “46a”, “49b).” for “46b).”
# as §1, with “lung” for “colorectal”, “(A549)” for “(HT-29)”, “50a” for “46a”, “50b).” for “46b).”
# as §1, with “lung” for “colorectal”, “(A549)” for “(HT-29)”, “51a” for “46a”, “51b).” for “46b).”
# [4] = test system: HIF-1α (hypoxia inducible factor 1α); assay: HIF-1α protein expression (Western blot); assay type: cell-based, human; settings: HCT-116 and HT-29, hypoxia condition
# Protocol: Human colorectal cancer cell lines (HCT-116 and HT-29) were cultured for 24 hours, under normoxia or hypoxia condition either treated or not treated with 2.5 mM calcium lactate. Then, a Western blot using an anti-HIF-1α antibody was conducted to each of the cultured cancer cell lines (upper part of FIG. 15).
# Then, the human colorectal cancer cell lines (HCT-116 and HT-29) were treated with various concentrations (0.5 mM, 1.5 mM and 2.5 mM) of the calcium lactate under hypoxia condition and cultured and change in expression levels of HIF-1α in a nucleus of a cancer cell was measured (lower part of FIG. 15).
# [5] = test system: human colorectal cancer stem cell line; assay: Conformational change of sphere of colorectal cancer stem cell line; assay type: cell-based; settings: vs DMSO control
# Protocol: A human colorectal cancer stem cell line was inoculated into a stem cell culture medium (medium including 1% penicillin/streptomycin and 50 times B27 and including a DMEM medium and an F12 medium mixed at 1:1) and cultured at 37° C. with 5% CO2. The cultured colorectal cancer stem cell line was treated with calcium lactate and then, it was checked whether or not there is the conformational change of a sphere formed by the stem cells (FIG. 22). In this case, a cancer cell treated with DMSO instead of calcium lactate was used as a control group.
# [6] = test system: human colorectal cancer cell lines (HCT-116, HT-29, and DLD-1); assay: Viability of colorectal cancer cell lines in plate with low adhesivity; assay type: cell-based; settings: HCT-116, HT-29, DLD-1, 1.5 or 2.5 mM (untreated about 5%)
# Protocol: Human colorectal cancer cell lines (HCT-116, HT-29, and DLD-1) were inoculated into a 6-well plate with low adhesivity and then cultured treating with various concentrations (0 mM, 1.5 mM, or 2.5 mM) of calcium lactate. Then, survival rates of the cells were compared (FIG. 26).
compound,measurement,setting,value
CC(O)C(=O)[O-].CC(O)C(=O)[O-].[Ca+2] (stereo not drawn) [calcium lactate],pyruvate levels in the cells,[1],sharply increased
same,mRNA expression levels of β-catenin,"β-catenin; 0, 1.5, 2.5 mM",no difference
same,protein expression levels of β-catenin,"β-catenin; with increasing concentration (0, 1.5, 2.5 mM)",decreased
same,colony-forming ability,[2],suppressed
same,colony-forming ability,[3],suppressed
same,protein expression levels of HIF-1α,"[4]; 2.5 mM, 24 hours",not expressed
same,expression levels of HIF-1α in a nucleus of a cancer cell,"[4]; 0.5, 1.5, 2.5 mM",suppresses the expression levels of HIF-1α concentration dependently
same,conformation of the sphere,[5],destructed
same,cell apoptosis rate,[6],about 90%
